Source: patent publication US20230406831A1, “COMPOUNDS AND METHODS OF INHIBITING BACTERIAL CHAPERONIN SYSTEMS” (THE TRUSTEES OF INDIANA UNIVERSITY, priority 2020, published 2023)
pIC50: −log10 of the molar value. Read-outs that look alike come from different tables or passages of the source.

What was measured:
GroEL/ES = target: T1, GroEL/ES (Escherichia coli, UniProt P0A6F5); assay: GroEL/ES-mediated dMDH refolding assay; type: biochemical, E. coli
T1 construct: made in house; host or cells: GroEL in E. coli DH5a; GroES in E. coli BL21 (DE3)
T1 sequence (P0A6F5 2-548): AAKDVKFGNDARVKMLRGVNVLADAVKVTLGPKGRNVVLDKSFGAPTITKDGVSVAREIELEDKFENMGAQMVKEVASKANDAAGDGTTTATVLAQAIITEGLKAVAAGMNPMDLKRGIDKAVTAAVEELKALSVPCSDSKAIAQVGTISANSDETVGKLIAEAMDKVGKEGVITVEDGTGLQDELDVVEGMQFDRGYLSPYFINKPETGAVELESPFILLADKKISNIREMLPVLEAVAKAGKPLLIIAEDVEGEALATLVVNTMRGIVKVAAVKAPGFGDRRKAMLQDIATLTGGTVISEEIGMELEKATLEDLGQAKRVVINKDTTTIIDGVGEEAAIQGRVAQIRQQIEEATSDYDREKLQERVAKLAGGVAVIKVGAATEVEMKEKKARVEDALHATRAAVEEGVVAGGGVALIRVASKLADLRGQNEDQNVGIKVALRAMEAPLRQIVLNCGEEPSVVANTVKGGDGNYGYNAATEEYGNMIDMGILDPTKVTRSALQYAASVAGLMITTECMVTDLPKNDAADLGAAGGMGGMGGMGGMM
Method in brief: (§1)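 Pre-formed chaperonin–denatured pig heart MDH complexes (50 nM GroEL or HSP60, 60 nM GroES or HSP10, 12 nM dMDH) refolded with 1 mM ATP and compound (100 μM–46 nM) at 37 °C, ~20-40 min for GroEL/ES or ~40-60 min for HSP60/10. After EDTA quench, MDH activity was read as NADH loss at A340. IC50 came from variable-slope regression.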

native MDH = target: T2, native MDH (Sus scrofa, UniProt P00346); assay: Native MDH enzymatic activity counter-screen; type: biochemical, pig; details: compounds added after refolding and EDTA quench, read-out: Biochemical Assay IC50 Native MDH Activity
T2 construct: soluble pig heart MDH from Roche, product #10127248001; purchased Roche 10127248001; host or cells: pig heart
T2 sequence (P00346 25-338): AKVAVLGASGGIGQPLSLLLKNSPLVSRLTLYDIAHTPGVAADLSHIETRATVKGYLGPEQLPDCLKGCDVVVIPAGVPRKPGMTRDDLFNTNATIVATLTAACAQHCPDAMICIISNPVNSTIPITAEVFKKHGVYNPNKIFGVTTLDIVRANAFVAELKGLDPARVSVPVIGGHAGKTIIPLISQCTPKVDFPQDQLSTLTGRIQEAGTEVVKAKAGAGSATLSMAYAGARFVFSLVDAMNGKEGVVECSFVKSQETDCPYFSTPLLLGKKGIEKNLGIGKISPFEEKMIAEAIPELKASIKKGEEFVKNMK
Procedure: Counter-screening compounds for inhibition of native MDH enzymatic activity.
Reagent Preparations & Assay Protocol: This assay was performed as described above for the GroEL/ES-dMDH refolding assay; however, the assay protocol differed in the sequence of compound addition to the assay plates. The refolding reactions were allowed to proceed for 45 min at 37° C. in the absence of test compounds (complete refolding of MDH occurs), then quenched with the EDTA stock. Compounds were then pin-transferred into the plates after the EDTA quenching step; thus, compounds effects are only possible by inhibiting the fully-refolded MDH reporter substrate. Next enzymatic activity of the refolded MDH was initiated by addition of 20 μL MDH enzymatic assay stock (20 mM sodium mesoxalate and 2.4 mM NADH in reaction buffer, 50 mM Tris pH 7.4, 50 mM KCl, 1 mM DTT), and followed by measuring the NADH absorbance in each well at 340 nm using a Molecular Devices SpectraMax Plus384 microplate reader
A340 nm measurements were recorded at 0.5 minutes (start point) and at successive time points until the amount of NADH consumed reached ˜90% (end point, generally between 20-35 minutes). Compounds were tested in 8-point, 3-fold dilution series (62.5 μM to 29 nM during the reporter reaction) in clear, flat-bottom 384-well microtiter plates.
DMSO was used as a negative control, and previously discovered native MDH inhibitors were used as positive controls. IC50 values for the test compounds were obtained by plotting the % inhibition results in GraphPad Prism 6 and analyzing by non-linear regression using the log (inhibitor) vs. response (variable slope) equation. Results presented represent the averages of IC50 values obtained from at least quadriplicate (duplicate of duplicate) replicates.

HSP60/10 = target: T3, HSP60/10 (Homo sapiens, UniProt P10809); assay: HSP60/10-mediated dMDH refolding assay; type: biochemical; details: 37° C., 1 mM ATP, read-out: Biochemical Assay IC50 HSP60/10-dMDH Refolding
T3 construct: octa-Histidine (His8) tag, TEV-cleavable (N, cleaved yes); made in house; host or cells: HSP60 in Rosetta 2 (DE3) E. coli; HSP10 in Rosetta 2 (DE3) pLysS
T3 sequence (P10809 27-573): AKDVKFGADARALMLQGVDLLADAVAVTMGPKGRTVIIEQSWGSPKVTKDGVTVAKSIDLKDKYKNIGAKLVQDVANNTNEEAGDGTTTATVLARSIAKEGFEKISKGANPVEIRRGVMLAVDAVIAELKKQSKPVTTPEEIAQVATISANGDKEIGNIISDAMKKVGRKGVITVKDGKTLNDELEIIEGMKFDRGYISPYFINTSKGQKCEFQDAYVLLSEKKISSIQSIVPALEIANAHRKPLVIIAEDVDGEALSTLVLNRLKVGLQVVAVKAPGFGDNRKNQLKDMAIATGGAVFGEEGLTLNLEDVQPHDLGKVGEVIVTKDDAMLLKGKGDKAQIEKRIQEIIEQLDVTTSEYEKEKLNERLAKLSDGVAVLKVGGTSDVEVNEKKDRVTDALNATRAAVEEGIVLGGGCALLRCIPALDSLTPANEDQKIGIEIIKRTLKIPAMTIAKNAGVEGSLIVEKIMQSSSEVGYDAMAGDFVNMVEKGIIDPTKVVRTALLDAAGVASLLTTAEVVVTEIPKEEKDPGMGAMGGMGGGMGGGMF
Method in brief: as §1

Structure (SMILES) | pIC50 (GroEL/ES) | pIC50 (native MDH; Table 2) | pIC50 (HSP60/10; Table 2) | pIC50 (native MDH; Table 3) | pIC50 (HSP60/10; Table 3)
Cc1cc(C(C#N)c2ccc(Cl)cc2)c(Cl)cc1NC(=O)c1ccccc1F (stereo not drawn) [Compound 79, N-(5-chloro-4-((4-chlorophenyl)(cyano)methyl)-2-methylphenyl)-2-fluorobenzamide] | 4.05 | < 4.20 | < 4.00 |  | 
Cc1cc(C(C#N)c2ccc(Cl)cc2)c(Cl)cc1NC(=O)c1cccc(F)c1 (stereo not drawn) [Compound 80, N-(5-chloro-4-((4-chlorophenyl)(cyano)methyl)-2-methylphenyl)-3-fluorobenzamide] | 4.11 | < 4.20 | < 4.00 |  | 
Cc1cc(C(C#N)c2ccc(Cl)cc2)c(Cl)cc1NC(=O)c1ccc(F)cc1 (stereo not drawn) [Compound 81, N-(5-chloro-4-((4-chlorophenyl)(cyano)methyl)-2-methylphenyl)-4-fluorobenzamide] | 4.11 | < 4.20 | < 4.00 |  | 
Cc1cc(C(C#N)c2ccc(Cl)cc2)c(Cl)cc1NC(=O)c1ccccc1 (stereo not drawn) [Compound 82, N-(5-chloro-4-((4-chlorophenyl)(cyano)methyl)-2-methylphenyl)benzamide] | 4.13 | < 4.20 | < 4.00 |  | 
CC(=O)Nc1cc(Cl)c(C(C#N)c2ccc(Cl)cc2)cc1C (stereo not drawn) [Compound 83, N-(5-chloro-4-((4-chlorophenyl)(cyano)methyl)-2-methylphenyl)acetamide] | < 4.00 | < 4.20 | 4.16 |  | 
COc1ccc(Cl)cc1C(=O)Nc1ccc(C(C#N)c2ccccc2)cc1 (stereo not drawn) [Compound 84, 5-chloro-N-(4-(cyano(phenyl)methyl)phenyl)-2-methoxybenzamide] | 4.03 |  |  | < 4.20 | < 4.00
N#CC(c1ccccc1)c1ccc(NC(=O)c2cc(Cl)ccc2O)cc1 (stereo not drawn) [Compound 85, 5-chloro-N-(4-(cyano(phenyl)methyl)phenyl)-2-hydroxybenzamide] | 4.25 |  |  | < 4.20 | 4.12
COc1ccc(Cl)cc1C(=O)Nc1ccc(Oc2ccc(Cl)cc2)c(Cl)c1 [Compound 86, 5-chloro-N-(3-chloro-4-(4-chlorophenoxy)phenyl)-2-methoxybenzamide] | < 4.00 |  |  | < 4.20 | < 4.00
O=C(Nc1ccc(Oc2ccc(Cl)cc2)c(Cl)c1)c1cc(Cl)ccc1O [Compound 87, 5-chloro-N-(3-chloro-4-(4-chlorophenoxy)phenyl)-2-hydroxybenzamide] | 4.52 |  |  | < 4.20 | 5.02
COc1ccc(Cl)cc1C(=O)Nc1ccc(Oc2ccc(Cl)cc2)cc1 [Compound 88, 5-chloro-N-(4-(4-chlorophenoxy)phenyl)-2-methoxybenzamide] | < 4.00 |  |  | < 4.20 | < 4.00
O=C(Nc1ccc(Oc2ccc(Cl)cc2)cc1)c1cc(Cl)ccc1O [Compound 89, 5-chloro-N-(4-(4-chlorophenoxy)phenyl)-2-hydroxybenzamide] | 4.34 |  |  | < 4.20 | 4.35
COc1ccc(Cl)cc1C(=O)Nc1ccc(Oc2ccccc2)c(Cl)c1 [Compound 90, 5-chloro-N-(3-chloro-4-phenoxyphenyl)-2-methoxybenzamide] | < 4.00 |  |  | < 4.20 | < 4.00
O=C(Nc1ccc(Oc2ccccc2)c(Cl)c1)c1cc(Cl)ccc1O [Compound 91, 5-chloro-N-(3-chloro-4-phenoxyphenyl)-2-hydroxybenzamide] | 4.29 |  |  | < 4.20 | 4.66
COc1ccc(Cl)cc1C(=O)Nc1ccc(Oc2ccccc2)cc1 [Compound 92, 5-chloro-2-methoxy-N-(4-phenoxyphenyl)benzamide] | < 4.00 |  |  | < 4.20 | < 4.00
O=C(Nc1ccc(Oc2ccccc2)cc1)c1cc(Cl)ccc1O [Compound 93, 5-chloro-2-hydroxy-N-(4-phenoxyphenyl)benzamide] | 4.17 |  |  | < 4.20 | < 4.00
COc1ccc(Cl)cc1C(=O)Nc1ccc(Sc2nc3ccccc3s2)c(Cl)c1 [Compound 94, N-(4-(benzo[d]thiazol-2-ylthio)-3-chlorophenyl)-5-chloro-2-methoxybenzamide] | 4.21 |  |  | < 4.20 | < 4.00
O=C(Nc1ccc(Sc2nc3ccccc3s2)c(Cl)c1)c1cc(Cl)ccc1O [Compound 95, N-(4-(benzo[d]thiazol-2-ylthio)-3-chlorophenyl)-5-chloro-2-hydroxybenzamide] | 4.68 |  |  | < 4.20 | 4.41
COc1ccc(Cl)cc1C(=O)Nc1ccc(Sc2nc3ccccc3s2)cc1 [Compound 96, N-(4-(benzo[d]thiazol-2-ylthio)phenyl)-5-chloro-2-methoxybenzamide] | 4.23 |  |  | < 4.20 | < 4.00
O=C(Nc1ccc(Sc2nc3ccccc3s2)cc1)c1cc(Cl)ccc1O [Compound 97, N-(4-(benzo[d]thiazol-2-ylthio)phenyl)-5-chloro-2-hydroxybenzamide] | 4.62 |  |  | < 4.20 | 4.23
COc1ccc(Cl)cc1C(=O)Nc1ccc(Cc2ccccc2)cc1 [Compound 98, N-(4-benzylphenyl)-5-chloro-2-methoxybenzamide] | < 4.00 |  |  | < 4.20 | < 4.00
O=C(Nc1ccc(Cc2ccccc2)cc1)c1cc(Cl)ccc1O [Compound 99, N-(4-benzylphenyl)-5-chloro-2-hydroxybenzamide] | 4.11 |  |  | < 4.20 | < 4.00
COc1ccc(Cl)cc1C(=O)Nc1ccc(CCc2ccccc2)cc1 [Compound 100, 5-chloro-2-methoxy-N-(4-phenethylphenyl)benzamide] | < 4.00 |  |  | < 4.20 | < 4.00
O=C(Nc1ccc(CCc2ccccc2)cc1)c1cc(Cl)ccc1O [Compound 101] | 4.27 |  |  | < 4.20 | 4.09
COc1ccc(Cl)cc1C(=O)Nc1ccc(OCc2ccccc2)cc1 [Compound 102, N-(4-(benzyloxy)phenyl)-5-chloro-2-methoxybenzamide] | < 4.00 |  |  | < 4.20 | < 4.00
O=C(Nc1ccc(OCc2ccccc2)cc1)c1cc(Cl)ccc1O [Compound 103, N-(4-(benzyloxy)phenyl)-5-chloro-2-hydroxybenzamide] | 4.36 |  |  | < 4.20 | < 4.00
COc1ccc(Cl)cc1C(=O)Nc1ccc(NC(C)=O)cc1 [Compound 104, N-(4-acetamidophenyl)-5-chloro-2-methoxybenzamide] | < 4.00 |  |  | < 4.20 | < 4.00
CC(=O)Nc1ccc(NC(=O)c2cc(Cl)ccc2O)cc1 [Compound 105, N-(4-acetamidophenyl)-5-chloro-2-hydroxybenzamide] | < 4.00 |  |  | < 4.20 | < 4.00
COC(=O)c1ccc(NC(=O)c2cc(Cl)ccc2OC)cc1 [Compound 106, methyl 4-(5-chloro-2-methoxybenzamido)benzoate] | 4.34 |  |  | < 4.20 | < 4.00
COC(=O)c1ccc(NC(=O)c2cc(Cl)ccc2O)cc1 [Compound 107, methyl 4-(5-chloro-2-hydroxybenzamido)benzoate] | 4.08 |  |  | < 4.20 | < 4.00
COc1ccc(Cl)cc1C(=O)Nc1ccc(C(=O)O)cc1 [Compound 108, 4-(5-chloro-2-methoxybenzamido)benzoic acid] | < 4.00 |  |  | < 4.20 | < 4.00
